pIC50: −log10 of the molar value. Read-outs that look alike come from different tables or passages of the source. Peptide text beside a SMILES is read from it.
Tests used:
human GGTase = human GGTase (Homo sapiens, UniProt P53609); experiment: Human GGTase inhibition (Hu GG); format: biochemical; conditions: for IC50: read-out: IC50 (nM) Hu GG
Description: As described below, a variety of different compounds were synthesized and tested for inhibitory activity against human and Candida GGTase. Exemplary synthesis schemes for generating prenyltransferase inhibitors useful in the methods and compositions of the present invention are shown in FIGS. 1-56. Tables 1-5 provide Structure-Activity relationship (SAR) data for several different classes of prenyltransferase inhibitors.

C. albicans GGPTase = target: T1, C. albicans GGPTase (Candida albicans, UniProt Q8J224+Q9Y764); experiment: biochemical; conditions: for IC50: read-out: IC50 (nM) Ca GG
T1 sequence (Q9Y764 1-398): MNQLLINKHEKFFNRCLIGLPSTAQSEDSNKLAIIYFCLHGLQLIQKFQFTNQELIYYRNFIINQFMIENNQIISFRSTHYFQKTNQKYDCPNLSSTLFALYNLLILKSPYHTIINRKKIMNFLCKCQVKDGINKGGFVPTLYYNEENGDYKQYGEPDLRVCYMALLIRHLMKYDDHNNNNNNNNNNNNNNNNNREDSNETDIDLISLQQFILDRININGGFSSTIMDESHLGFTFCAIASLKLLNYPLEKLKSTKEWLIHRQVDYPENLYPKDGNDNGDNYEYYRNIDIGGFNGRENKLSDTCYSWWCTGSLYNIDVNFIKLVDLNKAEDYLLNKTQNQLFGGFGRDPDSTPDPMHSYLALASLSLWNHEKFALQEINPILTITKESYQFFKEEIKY
T1 sequence (Q8J224 1-306): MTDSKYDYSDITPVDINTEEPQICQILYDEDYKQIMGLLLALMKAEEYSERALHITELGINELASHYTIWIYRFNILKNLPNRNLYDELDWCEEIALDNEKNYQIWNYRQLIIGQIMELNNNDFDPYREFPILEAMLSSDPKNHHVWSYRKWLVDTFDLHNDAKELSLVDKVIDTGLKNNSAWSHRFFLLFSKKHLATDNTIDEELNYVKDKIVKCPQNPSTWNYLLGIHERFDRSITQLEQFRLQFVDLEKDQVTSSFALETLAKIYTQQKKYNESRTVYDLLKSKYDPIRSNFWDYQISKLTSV
Description: Plate test compounds (10 μL per well) at predetermined concentration in 50% DMSO. For background control (blank) and reaction control (negative), add 10 μL of 200 μM GGPP and 10 μL 50% DMSO, respectively. Prepare assay buffer: 50 mM Tris, pH7.5, 20 mM KCL, 5 mM MgCl2, 5 μM ZnCl2, 0.5 mM Zw(3-14), 2 mM DTT and 0.1 mg/mL BSA.
Add 20 μL of C. albicans GGPTase and ^3H-GGPP in assay buffer to test compound. Preincubate enzyme and ^3H-GGPP with test compound for 15 minutes at room temperature. Add 20 μL C. albicans Rho in assay buffer. Incubate for 30 minutes at room temperature. Final assay conditions are 2 nM C. albicans GGPTase, 250 nM ^3H-GGPP and 250 nM C. albicans Rho.
Add 100 μL 15 mM GGPP, 50 mM Tris, pH7.0 and 2% BSA to quench reaction. Transfer reaction to Nickel chelate FlashPlate. Allow his-tagged C. albcians Rho to capture onto plate. Rinse plate 1× with 200 μL 20 mM Tris, pH7.0. Read in TOPCOUNT.

In the case of `CCOC(=O)N1CCC(NC(=O)C2(c3ccccc3)CCN(C(=O)[C@@H](N)CS)CC2)CC1` [Compound 53l], the IC50 (human GGTase; Table 3 Piperidine Analogs) was > 1000 nM and the IC50 (C. albicans GGPTase; Table 3 Piperidine Analogs) was > 1000 nM.

`N[C@@H](CS)C(=O)N1CCC(C(=O)NCCc2ccc(S(N)(=O)=O)cc2)(c2ccccc2)CC1` [Compound 53m] was tested, and the IC50 (human GGTase; Table 3 Piperidine Analogs) was > 1000 nM and the IC50 (C. albicans GGPTase; Table 3 Piperidine Analogs) was > 1000 nM.

`N[C@@H](CS)C(=O)N1CCC(C(=O)NC2CCCCC2)(c2ccccc2)CC1` [Compound 53s] was tested, and the IC50 (human GGTase; Table 3 Piperidine Analogs) was > 1000 nM and the IC50 (C. albicans GGPTase; Table 3 Piperidine Analogs) was < 500 nM.

For `N[C@@H](CS)C(=O)N1CCC(C(=O)NCC2CCCO2)(c2ccccc2)CC1` (some centres unmarked) [Compound 53t], the IC50 (human GGTase; Table 3 Piperidine Analogs) was > 1000 nM and the IC50 (C. albicans GGPTase; Table 3 Piperidine Analogs) was < 100 nM.

`N[C@@H](CS)C(=O)N1CCC(C(=O)NCC(c2ccccc2)c2ccccc2)(c2ccccc2)CC1` [Compound 53y] was tested, and the IC50 (human GGTase; Table 3 Piperidine Analogs) was < 500 nM and the IC50 (C. albicans GGPTase; Table 3 Piperidine Analogs) was < 100 nM.

`N[C@@H](CS)C(=O)N1CCC(C(=O)NCc2ccccc2)CC1` [Compound 59] was tested, and the pIC50 (human GGTase) was < 6.00 and the pIC50 (C. albicans GGPTase) was < 6.00.

In the case of `N[C@@H](CS)C(=O)N1CCC(C(=O)N(Cc2ccccc2)c2ccccc2)CC1` [Compound 60], the pIC50 (human GGTase) was < 6.00 and the pIC50 (C. albicans GGPTase) was < 6.00.

With `N[C@@H](CS)C(=O)N1CCC(C(=O)N(Cc2ccccc2)Cc2ccccc2)CC1` [Compound 61] the pIC50 (human GGTase) was < 6.00 and the pIC50 (C. albicans GGPTase) was < 6.00.

`N[C@@H](CS)C(=O)N1CCC(C(=O)N(CCc2ccccc2)Cc2ccccc2)CC1` [Compound 62] was tested, and the pIC50 (human GGTase) was < 6.00 and the pIC50 (C. albicans GGPTase) was > 6.70.

For `CC1(C(=O)NCc2ccccc2)CCN(C(=O)[C@@H](N)CS)CC1` [Compound 63], the pIC50 (human GGTase) was < 6.00 and the pIC50 (C. albicans GGPTase) was > 6.30.

With `N[C@@H](CS)C(=O)N1CCC(Cc2ccccc2)(C(=O)NCc2ccccc2)CC1` [Compound 64] the pIC50 (human GGTase) was < 6.00 and the pIC50 (C. albicans GGPTase) was > 7.00.

In the case of `CC(C)/C=C1\NC(=O)N(C2(c3ccccc3)CCN(C(=O)C(N)CS)CC2)C1=O` (centres unmarked) [Compound 70], the pIC50 (human GGTase) was < 6.00 and the pIC50 (C. albicans GGPTase) was > 7.30.

For `NC[C@H](NC(=O)[C@@H](N)CS)C(=O)NCc1ccc2c(c1)OCO2` [Compound 89d], the IC50 (human GGTase; Table 1) was > 1000 nM, the IC50 (human GGTase; Table 1 Peptide Analogs) was > 1000 nM and the IC50 (C. albicans GGPTase; Table 1) was > 1000 nM. For the same compound, the IC50 (C. albicans GGPTase; Table 1 Peptide Analogs) was > 1000 nM.

For `NC[C@H](NC(=O)[C@@H](N)CS)C(=O)NCC(=O)Nc1ccc2ccccc2c1` [Compound 89e] (HELM PEPTIDE1{C.[NC[C@H](N[*:1])C(=O)[*:2]].G.[c1ccc2cc(N[*:1])ccc2c1]}$$$$V2.0), the IC50 (human GGTase; Table 1) was > 1000 nM, the IC50 (human GGTase; Table 1 Peptide Analogs) was > 1000 nM and the IC50 (C. albicans GGPTase; Table 1) was > 1000 nM. For the same compound, the IC50 (C. albicans GGPTase; Table 1 Peptide Analogs) was > 1000 nM.

`NC[C@H](NC(=O)[C@@H](N)CS)C(=O)N1CCC(Cc2ccccc2)CC1` [Compound 89f] was tested, and the IC50 (human GGTase; Table 1) was > 1000 nM, the IC50 (human GGTase; Table 1 Peptide Analogs) was > 1000 nM and the IC50 (C. albicans GGPTase; Table 1) was < 1000 nM. The IC50 (C. albicans GGPTase; Table 1 Peptide Analogs) was < 1000 nM.

For `NC[C@H](NC(=O)[C@@H](N)CS)C(=O)N1CCN(C(c2ccc(F)cc2)c2ccc(F)cc2)CC1` [Compound 89g], the IC50 (human GGTase; Table 1) was > 1000 nM, the IC50 (human GGTase; Table 1 Peptide Analogs) was > 1000 nM and the IC50 (C. albicans GGPTase; Table 1) was < 500 nM. For the same compound, the IC50 (C. albicans GGPTase; Table 1 Peptide Analogs) was < 500 nM.

With `CC(C)C[C@@H](C(=O)O)N(C)C(=O)Cn1c(=O)n(C2CCN(C(=O)[C@@H](N)CS)CC2)c2ccccc21` [Compound 93] the IC50 (human GGTase; Table 3 Piperidine Analogs) was > 1000 nM and the IC50 (C. albicans GGPTase; Table 3 Piperidine Analogs) was > 1000 nM.

`CC(C)C[C@H](NC(=O)C1(c2ccccc2)CCN(C(=O)[C@@H](N)CS)CC1)C(=O)N[C@@H](C)C(=O)N[C@@H](C)C(=O)O` [Compound 99b] (HELM PEPTIDE1{C.[O=C(C1(c2ccccc2)CCN([*:1])CC1)[*:2]].L.A.A}$$$$V2.0) was tested, and the IC50 (human GGTase; Table 3 Piperidine Analogs) was > 500 nM and the IC50 (C. albicans GGPTase; Table 3 Piperidine Analogs) was < 200 nM.

— US6423519B1, “Compositions and methods for inhibiting fungal growth” (GPC Biotech Inc., priority 1998, dated 2002)
